# Measured values from article PMC8019892, “Para-Aminobenzohydrazide Derivatives as Fatty Acid Amide Hydrolase Inhibitors: Design, Synthesis and Biological Evaluation” (Iranian Journal of Pharmaceutical Research : IJPR, 2020).
# Like-named read-outs stand apart in the source and are kept apart here.
# Tests used:
# [1] = biological target: T1, fatty acid amide hydrolase (FAAH) (Homo sapiens, UniProt O00519); assay: Cayman plate-based fluorometric FAAH assay kit; assay type: biochemical
# T1 construct: purchased Cayman 10005196
# T1 sequence (O00519 1-579): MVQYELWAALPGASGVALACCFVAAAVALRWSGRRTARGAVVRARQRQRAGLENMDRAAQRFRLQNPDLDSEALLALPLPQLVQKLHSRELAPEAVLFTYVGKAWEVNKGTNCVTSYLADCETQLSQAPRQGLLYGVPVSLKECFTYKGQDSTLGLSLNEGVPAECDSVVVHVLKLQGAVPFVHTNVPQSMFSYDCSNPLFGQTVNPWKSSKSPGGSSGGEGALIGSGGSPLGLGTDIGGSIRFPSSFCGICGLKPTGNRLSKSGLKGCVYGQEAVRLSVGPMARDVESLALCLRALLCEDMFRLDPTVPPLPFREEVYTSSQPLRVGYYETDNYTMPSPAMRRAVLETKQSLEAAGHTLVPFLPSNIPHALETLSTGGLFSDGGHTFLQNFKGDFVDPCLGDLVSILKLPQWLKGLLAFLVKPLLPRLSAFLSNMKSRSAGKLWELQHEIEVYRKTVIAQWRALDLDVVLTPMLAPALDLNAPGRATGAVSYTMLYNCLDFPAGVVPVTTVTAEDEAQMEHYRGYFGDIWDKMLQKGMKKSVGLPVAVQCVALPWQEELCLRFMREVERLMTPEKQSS
# Procedure: The inhibitory activity of the final products was evaluated against fatty acid amide hydrolase with Cayman plate-based fluorometric FAAH assay kit (item number 10005196) using an excitation wavelength of 340 nm and an emission wavelength of 450 nm. The enzyme was incubated with inhibitors for 5 min in […] Tris/HCl buffer (pH 9.0) at 37 °C. AMC-arachidonoyl amide and JZL-195 were used as substrate and positive control respectively. All test samples were dissolved in DMSO.
# The IC50 of the compounds with inhibitory activity above 70% and JZL-195, reference compound, were investigated at concentrations of 0.1, 5, 10, 20, 50 and 100 nM. The results are summarized in Table 1 Evaluation of the 5a, 5b and 7 derivatives have well illustrated the effect of phenyl group on inhibitory activity, which is probably directly related to lipophilicity and π-π interactions in lipophilic envelope.
# [2] = biological target: FAAH; design: method as in PMID 28535469, PMID 21764305, PMID 10805767; conditions: 8 and 9, cited from earlier work
# [3] = 100 nM compound, 5 min incubation, Tris/HCl pH 9.0, 37 °C, substrate AMC-arachidonoyl amide, read-out: %inhibition at 100nM
# [4] = concentrations 0.1, 5, 10, 20, 50 and 100 nM, fluorometric FAAH assay, read-out: IC50
"inhibition at 0.1 µM [1, 3] [%]",melting point,Structure (SMILES),other results
81.1,265 to 267 °C,"O=C(NNC(=O)c1ccc(NC(=O)c2ccccc2)cc1)c1ccccc1 [Compound 10a, N-(4-(2-benzoylhydrazine-1-carbonyl)phenyl) benzamide]","IC50 [1, 4]: 20.2 nM"
77.4,273 to 275 °C,"O=C(NNC(=O)c1cccc(Cl)c1)c1ccc(NC(=O)c2cccc(Cl)c2)cc1 [Compound 10b, 3-chloro-N-(4-(2-(3-chlorobenzoyl) hydrazine-1-carbonyl)phenyl) benzamide]","IC50 [1, 4]: 13.3 nM"
77.3,315 to 318 °C,"O=C(NNC(=O)c1ccc(NC(=O)c2ccc(Cl)cc2)cc1)c1ccc(Cl)cc1 [Compound 10c, 4-chloro-N-(4-(2-(4-chlorobenzoyl) hydrazine-1-carbonyl)phenyl) benzamide]","IC50 [1, 4]: 12.3 nM"
77.3,264 to 266 °C,"COc1ccc(C(=O)NNC(=O)c2ccc(NC(=O)c3ccc(OC)cc3)cc2)cc1 [Compound 10d, 4-methoxy-N-(4-(2-(4-methoxybenzoyl) hydrazine-1-carbonyl)phenyl) benzamide]","IC50 [1, 4]: 5.1 nM"
38.9,322 to 325 °C,"O=C(NNC(=O)c1ccc(NC(=O)c2ccc(F)cc2)cc1)c1ccc(F)cc1 [Compound 10e, 4-fluoro-N-(4-(2-(4-fluorobenzoyl) hydrazine-1-carbonyl)phenyl) benzamide]",–

# The remaining lines, values behind:
Structure (SMILES),"inhibition at 0.1 µM [1, 3] [%]",melting point,other results
"NC(=O)NNC(=O)c1ccc(NC(=O)c2ccccc2)cc1 [Compound 5a, 2-(4-benzamidobenzoyl) hydrazine-1-carboxamide]",58.5,283 to 285 °C,–
"NC(=O)NNC(=O)c1ccc(NC(=O)c2ccc(Cl)cc2)cc1 [Compound 5b, 2-(4-(4-chlorobenzamido)benzoyl) hydrazine-1-carboxamide]",63.4,325 to 327 °C,–
"NC(=O)NNC(=O)c1ccc(NC(N)=O)cc1 [Compound 7, 2-(4-ureidobenzoyl) hydrazine-1-carboxamide]",27.3,226 to 228 °C (dec.),–
"O=C(NN1C(=O)c2ccccc2C1=O)c1ccc(N2C(=O)c3ccccc3C2=O)cc1 [Compound 8, N, 4-bis (1,3-dioxoisoindolin-2-yl) benzamide]",31.3,316 to 318 °C,–
"O=C(NN1C(=O)CCC1=O)c1ccc(N2C(=O)CCC2=O)cc1 [Compound 9, N, 4-bis (2,5-dioxopyrrolidin-1-yl) benzamide]",45.1,273 to 275 °C,–
"O=C(NNC(=O)c1ccc([N+](=O)[O-])cc1)c1ccc(NC(=O)c2ccc([N+](=O)[O-])cc2)cc1 [Compound 10f, 4-nitro-N-(4-(2-(4-nitrobenzoyl) hydrazine-1-carbonyl)phenyl) benzamide]",50.5,287 to 289 °C,–
"O=C(O)CCC(=O)NNC(=O)c1ccc(NC(=O)CCC(=O)O)cc1 [Compound 11, 4-(2-(4-(3-carboxypropanamido)benzoyl) hydrazineyl)-4-oxobutanoic acid]",51.2,185 to 187 °C,–
"O=C(NNC(=O)c1ccccc1C(=O)O)c1ccc(NC(=O)c2ccccc2C(=O)O)cc1 [Compound 12, 2-(2-(4-(2-carboxybenzamido)benzoyl) hydrazine-1-carbonyl) benzoic acid]",80,186 °C,"IC50 [1, 4]: 1.62 nM"
"O=C(NNS(=O)(=O)c1ccccc1)c1ccc(NS(=O)(=O)c2ccccc2)cc1 [Compound 13, N-(4-(2-(phenylsulfonyl) hydrazine-1-carbonyl)phenyl) benzenesulfonamide]",31.4,239 to 241 °C,–
"O=C(Oc1ccc([N+](=O)[O-])cc1)N1CCN(Cc2cccc(Oc3ccccc3)c2)CC1 [JZL-195, reference compound]",–,–,"IC50 [1]: 1.31 nM; inhibition at 0.1 µM ([1]; pH 9, read-out: %inhibition at 100nM): 81%"
O=C(CCCCCCc1ccccc1)c1nnc(-c2ccccn2)o1 [OL-135 analogue],–,–,"Ki ([2]; known FAAH inhibitor, Figure 1): 0.29 nM"
Cc1cccnc1NC(=O)CNC(=O)C(C)c1ccc(Nc2ccnc(C(F)(F)F)c2)cc1 (centres unmarked) [TPA-17],–,–,"IC50 ([2]; known FAAH inhibitor, Figure 1): 2400 nM; FAAH inhibitory activity ([2]; previously reported, in words): mild FAAH inhibitory activity"
